Results as given in publication PMC9888480, “Carboranyl-1,8-naphthalimide intercalators induce lysosomal membrane permeabilization and ferroptosis in cancer cell lines” (Journal of Enzyme Inhibition and Medicinal Chemistry, 2023).

Experiments:
Format in all cases: cell-based, human
HepG2 cells [1] = assay: Intracellular Fe2+ level determination (FeRhoNox-1); conditions: HepG2, 24 h, total IC50 concentration
Protocol: The HepG2 cells were seeded at the density of 2 × 10^5 cells/well onto 12-well plates and cultured with supplemented EMEM at 37 °C under 5% CO2 saturation until 70–80% confluency was reached. […] Subsequently, the cells were detached with trypsin (Corning®), washed with 1 ml DPBS (Capricorn), and then resuspended in the growth medium with 5 µM FeRhoNox™-1 (Goryo Chemical) for 1 h. […] The cells were analysed after incubation with the dye with excitation at 488 nm using a FACSCalibur flow cytometer (Becton Dickinson), and the data were analysed using the FlowJo software (Becton Dickinson). To create a strong, single, positive red fluorescence signal, 3 mM N-acetylcysteine (2 h incubation; Sigma-Aldrich) was used.

HepG2 cells [2] = assay: Ca2+ homeostasis determination (Rhod-2 AM); conditions: HepG2, 24 h, total IC50 concentration
Protocol: Ca^2+ released was determined by the selective dye Calcium Rhod-2 AM (Thermo Fisher Scientific), which binds specifically to Ca^2+ ions that are related to an increase in dihydrorhod-2 AM concentration, and thus, an enhancement in fluorescence intensity occurred. After treatment, the cells were detached with trypsin (Corning®), washed with 1 ml of DPBS (Capricorn), and then resuspended in EMEM with 2.5 µM Rhod-2 AM. All the samples were incubated for 15 min at 37 °C in the dark, and fluorescence intensity was then analysed at an excitation/emission wavelength of 552/581 nm. The cells were analysed after incubation with the dye with excitation at 488 nm using a FACSCalibur flow cytometer (Becton Dickinson), and the data were analysed using the FlowJo software (Becton Dickinson).

HepG2 cells [3] = assay: Lysosome status (acridine orange and Lysotracker Deep Red staining); conditions: HepG2, 3 h, total IC50 concentration (5, 4.5, 4, 4.5 µM)
Protocol: To analyse the condition of the lysosomes, the cells (2 × 10^5) were stained with the 100 nM LysoTracker™ Deep Red (Thermo Fisher Scientific) fluorescent dye for 30 min under growth conditions. The HepG2 and MRC-5 cells were treated with the tested compounds for 3 h.Final concentration of the compounds for HepG2 cells were as follows: 34–5 µM, 35–4.5 µM, 36–4 µM, 37–4.5 µM, whereas for MRC-5 were: 34–2.1 µM, 35–2 µM, 36–2.3 µM, 37–2.3 µM. Subsequently, the cells were trypsinized, rinsed with 1 ml of DPBS (Capricorn), and then incubated with the dye. Then, cytometric analysis of the stained cells was performed at an excitation/emission wavelength of 647/668 nm.
Lysosomal permeabilization was tested using the acridine orange (AO) dye. After treatment with the compounds, the cell pellets were suspended in 500 µl of DBPS containing AO (Sigma-Aldrich) at the final concentration of 0.5 µg/ml. […] Fluorescence intensity was analysed at an excitation wavelength of 488 nm, and two emission spectra were acquired at 505–550 and 600–650 nm for green and red fluorescence, respectively. The cells were analysed after incubation with the dye, with excitation at 488 nm, using a FACSCalibur flow cytometer (Becton Dickinson), and the data were analysed using the FlowJo software (Becton Dickinson). […]

HepG2 cells [4] = assay: Cell cycle analysis by flow cytometry (PI); conditions: HepG2, 24 h, total IC50 concentration; 5% in untreated cells
Protocol: The DNA content was determined using flow cytometry with PI (Sigma-Aldrich, Steinheim, Germany) staining. After incubation, the cells were trypsinized and washed twice with 1 ml of PBS (Capricorn). In the next step, the cells were fixed with an ice-cold 80% ethanol. After incubation for 1 h at 4 °C, the fixed cells were washed twice with PBS and suspended in the staining PI/RNAse A/PBS buffer (PI 50 µg/ml, RNAse A 100 µg/ml) for 30 min at 37 °C in the dark. PI (Sigma) fluorescence was measured using a FACSCalibur (Becton Dickinson), and data were analysed using the FlowJo software (Becton Dickinson).

HepG2 cells [5] = assay: Mitochondrial membrane potential (MMP) measurement (JC-1); conditions: HepG2, 3-h treatment, 4.5 µM; 69.9% in control cells
Protocol: The HepG2 cells were seeded at the density of 2 × 10^5 cells/well onto 12-well plates and cultured with EMEM at 37 °C under 5% CO2 saturation until 70–80% confluency was reached. […] After incubation, the cells were detached with trypsin (Corning®) and washed twice with 1 ml of DPBS (Capricorn), and alterations in ΔΨm were analysed using the MMP-sensitive cationic dye 5,5′,6,6′-tetrachloro-1,1′,3,3′-tetraethylbenzimidazolylcarbocyanine iodide (JC-1; Thermo Fisher Scientific), which can selectively enter mitochondria and change colour from red to green as the membrane potential decreases. The cells were stained with 2.5 µM JC-1 for 30 min at 37 °C in the dark. The maximum emission wavelengths of JC-1 monomers and “J-aggregates” were ∼ 525 (FL-1 channel) and ∼ 590 (FL-2 channel) nm, respectively. To create a strong, single positive green fluorescence signal, 3 µM FCCP was used. The mean fluorescence intensity representing the intracellular MMP level was analysed after incubation with the dye, with excitation at 488 nm using a FACSCalibur flow cytometer (Becton Dickinson), and the data were analysed using the FlowJo software (Becton Dickinson).

4-[(6-[(1,2-Dicarba-closo-dodecaborane-1-yl)ethylamino]hexyl)amino]-3-nitro-N-[2-(N-pyrrolidinyl)ethyl]-1,8-naphthalimide [Compound 36]
intracellular Fe2+ level (red fluorescence intensity) (HepG2 cells [1]): lowest | Ca2+ accumulation compared to control (HepG2 cells [2]): slightest effect

4-[(6-[(1,2-Dicarba-closo-dodecaborane-1-yl)ethylamino]hexyl)amino]-N-[2-(dimethylamino)ethyl]-3-nitro-1,8-naphthalimide [Compound 34]
AO green/red ratio (LMP) (HepG2 cells [3]): approximately twofold

4-[(6-[(1,7-Dicarba-closo-dodecaborane-1-yl)ethylamino]hexyl)amino]-3-nitro-N-[2-(N-pyrrolidinyl)ethyl]-1,8-naphthalimide [Compound 37]
accumulation of cells in G2M phase (HepG2 cells [4]): 15%

4-[(6-[(1,7-Dicarba-closo-dodecaborane-1-yl)ethylamino]hexyl)amino]-N-[2-(dimethylamino)ethyl]-3-nitro-1,8-naphthalimide [Compound 35]
intracellular Fe2+ level (red fluorescence intensity) (HepG2 cells [1]): highest ferrous level | MMP, JC-1 aggregates (HepG2 cells [5]): 90.8% | accumulation of cells in G2M phase (HepG2 cells [4]): 15% | Ca2+ accumulation compared to control (HepG2 cells [2]): more than threefold | AO green/red ratio (LMP) (HepG2 cells [3]): approximately twofold
